Source: ChEMBL document CHEMBL4251595, “Green approach for the synthesis of thiophenyl pyrazoles and isoxazoles by adopting 1,3-dipolar cycloaddition methodology and their antimicrobial activity” (2018)
Active and inactive are the calls of the source. No cut-off for these calls is given here.

Legend:
Assay type in all cases: functional
Bacillus subtilis [1] = test: Antimicrobial activity against Bacillus subtilis assessed as zone of inhibition at 100 ug/well after 24 hrs by agar well diffusion method; conditions: read-out: DIZ
Aspergillus niger [2] = test: Antifungal activity against Aspergillus niger assessed as zone of inhibition at 100 ug/well after 48 hrs by agar well diffusion method; conditions: read-out: DIZ
Penicillium chrysogenum [3] = test: Antifungal activity against Penicillium chrysogenum assessed as zone of inhibition at 50 ug/well after 48 hrs by agar well diffusion method
Pseudomonas aeruginosa [4] = test: Antimicrobial activity against Pseudomonas aeruginosa assessed as zone of inhibition at 100 ug/well after 24 hrs by agar well diffusion method; conditions: for zone of inhibition at 100 µg/disc: read-out: DIZ
Staphylococcus aureus [5] = test: Antimicrobial activity against Staphylococcus aureus assessed as zone of inhibition at 75 ug/well after 24 hrs by agar well diffusion method; conditions: read-out: DIZ
Klebsiella pneumoniae [6] = test: Antimicrobial activity against Klebsiella pneumoniae assessed as zone of inhibition at 100 ug/well after 24 hrs by agar well diffusion method; conditions: read-out: DIZ
Bacillus subtilis [7] = test: Antimicrobial activity against Bacillus subtilis assessed as zone of inhibition at 50 ug/well after 24 hrs by agar well diffusion method; conditions: read-out: DIZ
Penicillium chrysogenum [8] = test: Antifungal activity against Penicillium chrysogenum assessed as zone of inhibition at 100 ug/well after 48 hrs by agar well diffusion method; conditions: read-out: DIZ
Aspergillus niger [9] = test: Antifungal activity against Aspergillus niger assessed as zone of inhibition at 75 ug/well after 48 hrs by agar well diffusion method; conditions: read-out: DIZ
Penicillium chrysogenum [10] = test: Antifungal activity against Penicillium chrysogenum assessed as zone of inhibition at 75 ug/well after 48 hrs by agar well diffusion method; conditions: for zone of inhibition at 75 µg/disc: read-out: DIZ
Pseudomonas aeruginosa [11] = test: Antimicrobial activity against Pseudomonas aeruginosa assessed as zone of inhibition at 75 ug/well after 24 hrs by agar well diffusion method; conditions: for zone of inhibition at 75 µg/disc: read-out: DIZ
Bacillus subtilis [12] = test: Antimicrobial activity against Bacillus subtilis assessed as zone of inhibition at 75 ug/well after 24 hrs by agar well diffusion method; conditions: read-out: DIZ
Staphylococcus aureus [13] = test: Antimicrobial activity against Staphylococcus aureus assessed as zone of inhibition at 50 ug/well after 24 hrs by agar well diffusion method; conditions: for zone of inhibition at 50 µg/disc: read-out: DIZ
Staphylococcus aureus [14] = test: Antimicrobial activity against Staphylococcus aureus assessed as zone of inhibition at 100 ug/well after 24 hrs by agar well diffusion method; conditions: read-out: DIZ
Klebsiella pneumoniae [15] = test: Antimicrobial activity against Klebsiella pneumoniae assessed as zone of inhibition at 50 ug/well after 24 hrs by agar well diffusion method; conditions: read-out: DIZ
Klebsiella pneumoniae [16] = test: Antimicrobial activity against Klebsiella pneumoniae assessed as zone of inhibition at 75 ug/well after 24 hrs by agar well diffusion method; conditions: read-out: DIZ
Aspergillus niger [17] = test: Antifungal activity against Aspergillus niger assessed as zone of inhibition at 50 ug/well after 48 hrs by agar well diffusion method; conditions: for zone of inhibition at 50 µg/disc: read-out: DIZ
Pseudomonas aeruginosa [18] = test: Antimicrobial activity against Pseudomonas aeruginosa assessed as zone of inhibition at 50 ug/well after 24 hrs by agar well diffusion method; conditions: for zone of inhibition at 50 µg/disc: read-out: DIZ

SMILES	zone of inhibition at 100 µg/disc (Bacillus subtilis [1]) [mm]	zone of inhibition at 100 µg/disc (Aspergillus niger [2]) [mm]	diameter of the inhibition zone (DIZ) (Penicillium chrysogenum [3])	zone of inhibition at 100 µg/disc (Pseudomonas aeruginosa [4]) [mm]	zone of inhibition at 75 µg/disc (Staphylococcus aureus [5]) [mm]	zone of inhibition at 100 µg/disc (Klebsiella pneumoniae [6]) [mm]	zone of inhibition at 50 µg/disc (Bacillus subtilis [7]) [mm]	zone of inhibition at 100 µg/disc (Penicillium chrysogenum [8]) [mm]	zone of inhibition at 75 µg/disc (Aspergillus niger [9]) [mm]	zone of inhibition at 75 µg/disc (Penicillium chrysogenum [10]) [mm]	zone of inhibition at 75 µg/disc (Pseudomonas aeruginosa [11]) [mm]	zone of inhibition at 75 µg/disc (Bacillus subtilis [12]) [mm]	zone of inhibition at 50 µg/disc (Staphylococcus aureus [13]) [mm]	zone of inhibition at 100 µg/disc (Staphylococcus aureus [14]) [mm]	zone of inhibition at 50 µg/disc (Klebsiella pneumoniae [15]) [mm]	zone of inhibition at 75 µg/disc (Klebsiella pneumoniae [16]) [mm]	zone of inhibition at 50 µg/disc (Aspergillus niger [17]) [mm]	zone of inhibition at 50 µg/disc (Pseudomonas aeruginosa [18]) [mm]	diameter of the inhibition zone (DIZ) (Pseudomonas aeruginosa [18])	diameter of the inhibition zone (DIZ) (Pseudomonas aeruginosa [11])	also measured
O=C(NS(=O)(=O)/C=C/c1ccccc1)c1cccs1	23	15	inactive	10	16	19	18	11	13	8	9	21	12	17	15	18	10	7	–	–	–
Cc1ccc(/C=C/S(=O)(=O)NC(=O)c2ccc(Cl)s2)cc1	22	14	inactive	12	13	17	17	12	11	10	11	19	10	14	14	15	9	–	inactive	–	–
O=C(NS(=O)(=O)/C=C/c1ccccc1)c1ccc(Cl)s1	27	21	–	17	19	25	22	17	17	13	14	24	16	21	19	22	15	12	–	–	zone of inhibition at 50 µg/disc (Penicillium chrysogenum [3]; read-out: DIZ): 10 mm
Cc1ccc(-c2c(S(=O)(=O)NC(=O)c3ccc(Cl)s3)c(-c3ccccc3)nn2-c2ccccc2)cc1	24	23	inactive	13	15	20	18	13	19	10	–	20	12	16	15	17	16	–	inactive	inactive	–
O=C(NS(=O)(=O)C1C(c2ccccc2)=NOC1c1ccc([N+](=O)[O-])cc1)c1ccc(Cl)s1 (stereo not drawn)	21	15	inactive	–	14	13	16	12	12	9	–	19	13	16	9	11	9	–	inactive	inactive	diameter of the inhibition zone (DIZ) (Pseudomonas aeruginosa [4]): inactive
Cc1ccc(/C=C/S(=O)(=O)NC(=O)c2cccs2)cc1	18	12	inactive	9	11	16	13	10	8	–	7	15	–	12	12	13	–	–	inactive	–	diameter of the inhibition zone (DIZ) (Penicillium chrysogenum [10]): inactive; diameter of the inhibition zone (DIZ) (Staphylococcus aureus [13]): inactive; diameter of the inhibition zone (DIZ) (Aspergillus niger [17]): inactive
